According to ChEMBL document CHEMBL1201862, “PubChem BioAssay data set” (2004):
Active and inactive are the calls of the source.

Columns and labels:
[1] = molecular target: T1, Polyadenylate-binding protein 1 (Homo sapiens, UniProt P11940); experiment: PABP1 MLLE–PAM2 interaction inhibitors, dose response, miRNA deadenylation inhibitor project, biochemical, fluorescence polarization, Cy5-PAM2 peptide, secondary (AID 602260); type: functional; details: read-out: IC50_Mean
[2] = molecular target: T1, Polyadenylate-binding protein 1; experiment: PABP1 MLLE–PAM2 binding inhibitor potency, dose response, biochemical, fluorescence polarization, FITC-PAM2 peptide (AID 602259); type: functional; details: read-out: IC50_Mean
[3] = molecular target: T2, Adenosylmethionine-8-amino-7-oxononanoate aminotransferase (Mycobacterium tuberculosis, UniProt P9WQ81); experiment: Mycobacterium tuberculosis BioA enzyme inhibitor Measured in Biochemical System Using Plate Reader - 2163-02_Inhibitor_Dose_CherryPick_Activity.; type: functional, Mycobacterium tuberculosis UT205
T2 sequence (P9WQ81 whole entry): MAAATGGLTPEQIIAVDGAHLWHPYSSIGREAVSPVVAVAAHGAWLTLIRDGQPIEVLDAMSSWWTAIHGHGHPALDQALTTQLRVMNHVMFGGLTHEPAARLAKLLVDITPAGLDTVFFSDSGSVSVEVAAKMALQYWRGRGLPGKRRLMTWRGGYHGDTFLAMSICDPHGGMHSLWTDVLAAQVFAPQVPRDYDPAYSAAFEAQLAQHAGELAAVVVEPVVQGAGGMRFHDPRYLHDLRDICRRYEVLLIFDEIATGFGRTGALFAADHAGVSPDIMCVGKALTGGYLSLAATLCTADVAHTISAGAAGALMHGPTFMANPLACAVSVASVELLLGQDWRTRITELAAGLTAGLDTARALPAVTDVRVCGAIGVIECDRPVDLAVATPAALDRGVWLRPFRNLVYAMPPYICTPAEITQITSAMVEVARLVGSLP

[4] = molecular target: Nuclear receptor subfamily 5 group A member 2 (Homo sapiens, UniProt O00482); type: functional, cell-based;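 also: HEK293T cells transfected with LRH-1 and a StAR promoter luciferase reporter; potency for inhibitors that lower LRH-1 driven reporter light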
[5] = molecular target: Steroidogenic factor 1 (Homo sapiens, UniProt Q13285); experiment: Counterscreen for inverse agonists of the liver receptor homolog-1 (LRH-1; NR5A2): Luminescence-based cell-based high throughput dose response assay to identify inverse agonists of the Steroidogenic Factor 1 Nuclear Receptor (SF1; NR5A1).; type: functional
[6] = StAR promoter reporter inhibition counter-screen, dose response, counter-screen for LRH-1 inverse agonist project, cell-based, luminescence, luciferase reporter (AID 651969); type: functional
[7] = molecular target: T3, Microphthalmia-associated transcription factor (Homo sapiens, UniProt O75030); experiment: TRPM1 promoter luciferase signal decrease, dose response, MITF inhibitor project, cell-based, SK-MEL-5, cherry-picked, set 3 (AID 493073); type: functional
T3 sequence (O75030 whole entry): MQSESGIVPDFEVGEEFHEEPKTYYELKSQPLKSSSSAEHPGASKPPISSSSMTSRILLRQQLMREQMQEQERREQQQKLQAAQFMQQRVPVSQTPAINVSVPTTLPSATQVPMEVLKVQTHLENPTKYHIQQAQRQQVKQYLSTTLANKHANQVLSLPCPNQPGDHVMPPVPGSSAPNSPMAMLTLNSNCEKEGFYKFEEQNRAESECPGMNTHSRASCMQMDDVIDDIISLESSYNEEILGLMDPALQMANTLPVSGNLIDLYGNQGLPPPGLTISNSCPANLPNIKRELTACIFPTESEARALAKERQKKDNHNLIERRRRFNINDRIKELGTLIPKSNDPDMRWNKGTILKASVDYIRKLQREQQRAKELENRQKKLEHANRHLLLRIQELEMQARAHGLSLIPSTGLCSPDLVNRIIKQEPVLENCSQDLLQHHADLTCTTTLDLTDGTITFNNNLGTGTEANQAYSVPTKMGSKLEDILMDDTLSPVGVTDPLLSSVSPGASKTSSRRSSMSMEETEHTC

[8] = system: Vero; experiment: Vero cell cytotoxicity, cytotoxicity control for flavivirus capping enzyme inhibitors (AID 588742); type: functional; details: Chlorocebus sabaeus
[9] = molecular target: Genome polyprotein (dengue virus type 2, UniProt P29990); experiment: Dengue-2 NS5 methyltransferase inhibitors, primary screen, biochemical, confirmation dose response (AID 588689); type: functional
[10] = molecular target: Prothrombin (Homo sapiens, UniProt P00734); experiment: Thrombin 1536 HTS Dose Response Confirmation. [Related pubchem assays: 1046 (Thrombin 1536 HTS; hits were confirmed in this assay)]; type: functional
[11] = Shn3 3'UTR reporter inhibitors, dose response, cell-based, Clone20 osteoblasts, firefly luciferase, cherry-picked (AID 624132); type: functional;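 also: firefly luciferase luminescence from reporter carrying the Shn3 3'UTR in osteoblasts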
[12] = HepG2 cell cytotoxicity, dose response, cytotoxicity control for Shn3 inhibitor project, CellTiter-Glo, cherry-picked (AID 624134); type: functional, cell-based
[13] = control 3'UTR Renilla luciferase suppression, dose response, counter-screen for Shn3 inhibitor project, cell-based, Clone20-Shn3RL, cherry-picked (AID 624133); type: functional
[14] = molecular target: Protein Wnt-3a (Mus musculus, UniProt P27467); experiment: Wnt3a-driven reporter signaling inhibition, dose response, selectivity assay for Gli-SUFU antagonist project, Wnt-LIGHT cells, luminescence (AID 651570); type: functional; details: read-out: IC50_Mean;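 also: Wnt-LIGHT reporter cells stimulated with conditioned medium from Wnt3a-producing cells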
[15] = molecular target: T4, Short transient receptor potential channel 4 (Mus musculus, UniProt Q9QUQ5); experiment: mouse TRPC4 channel inhibitors, dose response, cell-based, HEK293 TRPC4/mu-opioid, Fluo-4 calcium (AID 434942); type: functional;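 also: potency of inhibitors blocking the TRPC4 calcium response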
T4 sequence (Q9QUQ5 whole entry): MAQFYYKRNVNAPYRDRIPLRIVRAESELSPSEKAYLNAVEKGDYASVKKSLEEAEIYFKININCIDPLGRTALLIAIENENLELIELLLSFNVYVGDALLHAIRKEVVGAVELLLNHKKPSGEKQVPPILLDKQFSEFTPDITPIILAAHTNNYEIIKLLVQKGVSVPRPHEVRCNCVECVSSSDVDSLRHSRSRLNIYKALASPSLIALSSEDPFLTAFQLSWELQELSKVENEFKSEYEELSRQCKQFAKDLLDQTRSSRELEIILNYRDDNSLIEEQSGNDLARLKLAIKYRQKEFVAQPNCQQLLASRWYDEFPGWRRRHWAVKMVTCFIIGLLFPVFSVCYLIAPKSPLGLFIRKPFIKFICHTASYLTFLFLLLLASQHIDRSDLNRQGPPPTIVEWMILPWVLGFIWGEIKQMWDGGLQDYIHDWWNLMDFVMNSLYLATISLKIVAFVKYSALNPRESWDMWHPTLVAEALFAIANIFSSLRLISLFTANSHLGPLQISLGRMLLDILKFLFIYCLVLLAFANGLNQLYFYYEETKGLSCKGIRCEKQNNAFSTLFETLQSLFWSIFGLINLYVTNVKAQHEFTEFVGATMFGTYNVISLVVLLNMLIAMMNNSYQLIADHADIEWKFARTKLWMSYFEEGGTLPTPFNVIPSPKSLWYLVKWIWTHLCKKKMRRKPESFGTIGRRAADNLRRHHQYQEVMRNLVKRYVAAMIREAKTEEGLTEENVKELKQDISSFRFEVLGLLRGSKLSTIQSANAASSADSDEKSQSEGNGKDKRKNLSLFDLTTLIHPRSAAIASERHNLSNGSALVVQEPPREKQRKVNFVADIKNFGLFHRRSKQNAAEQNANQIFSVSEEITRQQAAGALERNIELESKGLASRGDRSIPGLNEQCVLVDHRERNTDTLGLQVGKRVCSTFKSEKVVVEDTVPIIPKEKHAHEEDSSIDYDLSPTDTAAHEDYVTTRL

[16] = molecular target: T5, Small ubiquitin-related modifier 1 (Homo sapiens, UniProt P63165); experiment: inhibitors of SUMO1 peptide binding, dose response, biochemical, fluorescence polarization, uHTS hits (AID 624382); type: functional; details: read-out: IC50_Mean
[17] = molecular target: T5, Small ubiquitin-related modifier 1; experiment: inhibitors of SUMO1 partner interactions, dose response, biochemical, FRET (AID 624383); type: functional; details: read-out: IC50_Mean
[18] = molecular target: T6, Fatty acid synthase (Homo sapiens, UniProt P49327); experiment: FAS thioesterase domain inhibitors, dose response, biochemical, endpoint fluorescence intensity, uHTS hits (AID 624327); type: functional;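 also: fluorescence from hydrolysis of an O-methyl fluorescein acyl ester substrate by the enzyme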
[19] = molecular target: T6, Fatty acid synthase; experiment: FAS thioesterase domain inhibitors, dose response, biochemical, kinetic fluorescence intensity (AID 624326); type: functional;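 also: rate of fluorescence rise from hydrolysis of a fluorogenic O-methyl fluorescein ester substrate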
[20] = molecular target: Nonstructural protein 1 (Influenza A virus, UniProt Q194T2); type: functional, Influenza A virus (A/California/07/2009(H1N1))
[21] = HeLa cell cytotoxicity, dose response, cytotoxicity control for MgcRacGAP inhibitor project (AID 624300); type: functional
[22] = molecular target: T7, Rac GTPase-activating protein 1 (Homo sapiens, UniProt Q9H0H5); experiment: MgcRacGAP GTPase-activating activity inhibitors, confirmation, biochemical, ADP Hunter fluorescence, primary and confirmatory (AID 624330); type: functional
T7 sequence (Q9H0H5 whole entry): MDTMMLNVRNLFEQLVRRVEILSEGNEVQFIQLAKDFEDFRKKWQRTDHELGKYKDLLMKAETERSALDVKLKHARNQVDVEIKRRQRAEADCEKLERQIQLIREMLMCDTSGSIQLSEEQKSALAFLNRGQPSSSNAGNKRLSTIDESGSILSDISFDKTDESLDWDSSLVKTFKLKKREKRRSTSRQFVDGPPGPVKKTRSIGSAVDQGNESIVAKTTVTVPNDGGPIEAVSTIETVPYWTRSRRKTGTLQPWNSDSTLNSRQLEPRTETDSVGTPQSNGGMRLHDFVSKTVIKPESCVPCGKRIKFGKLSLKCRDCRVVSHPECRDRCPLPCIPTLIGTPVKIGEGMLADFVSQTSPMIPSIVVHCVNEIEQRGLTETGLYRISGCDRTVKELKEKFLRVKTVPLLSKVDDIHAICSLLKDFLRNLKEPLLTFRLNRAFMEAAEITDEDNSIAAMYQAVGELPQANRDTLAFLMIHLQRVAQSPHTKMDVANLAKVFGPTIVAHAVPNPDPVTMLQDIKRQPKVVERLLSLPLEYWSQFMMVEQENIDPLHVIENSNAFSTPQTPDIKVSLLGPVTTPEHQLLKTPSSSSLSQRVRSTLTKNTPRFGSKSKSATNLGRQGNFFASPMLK

[23] = molecular target: T8, DNA repair protein RAD52 homolog (Homo sapiens, UniProt P43351); type: functional, biochemical
T8 sequence (P43351 whole entry): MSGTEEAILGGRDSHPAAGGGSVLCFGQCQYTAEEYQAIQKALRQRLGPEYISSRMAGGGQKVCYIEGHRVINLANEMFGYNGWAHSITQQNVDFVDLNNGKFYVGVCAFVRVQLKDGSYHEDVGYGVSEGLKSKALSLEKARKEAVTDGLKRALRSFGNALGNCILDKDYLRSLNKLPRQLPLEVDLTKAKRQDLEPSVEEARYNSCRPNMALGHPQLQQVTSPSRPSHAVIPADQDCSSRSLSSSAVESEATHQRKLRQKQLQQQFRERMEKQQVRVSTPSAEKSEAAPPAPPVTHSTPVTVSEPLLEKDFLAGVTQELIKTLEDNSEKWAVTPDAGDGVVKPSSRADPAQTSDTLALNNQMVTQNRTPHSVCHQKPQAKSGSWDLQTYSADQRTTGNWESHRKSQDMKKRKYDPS

Nuclear receptor subfamily 5 group A member 2, sequence (O00482 whole entry): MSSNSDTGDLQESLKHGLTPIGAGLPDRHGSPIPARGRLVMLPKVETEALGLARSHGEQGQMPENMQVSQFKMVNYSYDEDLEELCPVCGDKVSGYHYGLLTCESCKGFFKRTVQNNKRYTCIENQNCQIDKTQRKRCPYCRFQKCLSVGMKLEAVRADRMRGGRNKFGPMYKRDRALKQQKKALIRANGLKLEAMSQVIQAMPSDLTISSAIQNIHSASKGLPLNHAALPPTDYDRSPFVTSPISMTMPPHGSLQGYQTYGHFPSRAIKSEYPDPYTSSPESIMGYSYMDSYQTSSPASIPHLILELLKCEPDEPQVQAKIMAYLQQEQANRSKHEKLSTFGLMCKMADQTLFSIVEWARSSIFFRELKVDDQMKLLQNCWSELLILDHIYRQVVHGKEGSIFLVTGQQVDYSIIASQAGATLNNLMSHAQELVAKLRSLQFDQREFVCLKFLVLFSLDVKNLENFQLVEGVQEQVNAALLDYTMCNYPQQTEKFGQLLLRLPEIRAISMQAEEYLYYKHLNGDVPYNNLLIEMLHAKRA
T1 sequence (P11940 whole entry): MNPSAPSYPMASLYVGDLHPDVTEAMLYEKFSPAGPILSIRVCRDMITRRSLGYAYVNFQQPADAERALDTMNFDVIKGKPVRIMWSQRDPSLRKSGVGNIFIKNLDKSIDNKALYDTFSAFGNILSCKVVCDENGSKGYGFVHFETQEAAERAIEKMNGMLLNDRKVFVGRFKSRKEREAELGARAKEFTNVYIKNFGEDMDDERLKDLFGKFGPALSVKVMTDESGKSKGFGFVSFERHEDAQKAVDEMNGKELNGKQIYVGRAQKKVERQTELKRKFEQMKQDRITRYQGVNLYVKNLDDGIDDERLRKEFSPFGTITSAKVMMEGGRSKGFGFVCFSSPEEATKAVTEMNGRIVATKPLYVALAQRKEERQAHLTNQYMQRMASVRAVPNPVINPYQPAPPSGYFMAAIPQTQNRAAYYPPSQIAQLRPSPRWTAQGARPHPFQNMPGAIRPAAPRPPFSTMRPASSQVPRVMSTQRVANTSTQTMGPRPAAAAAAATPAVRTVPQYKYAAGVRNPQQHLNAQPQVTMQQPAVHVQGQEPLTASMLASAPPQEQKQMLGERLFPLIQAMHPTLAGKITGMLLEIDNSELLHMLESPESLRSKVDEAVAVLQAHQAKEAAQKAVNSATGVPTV
Steroidogenic factor 1, sequence (Q13285 whole entry): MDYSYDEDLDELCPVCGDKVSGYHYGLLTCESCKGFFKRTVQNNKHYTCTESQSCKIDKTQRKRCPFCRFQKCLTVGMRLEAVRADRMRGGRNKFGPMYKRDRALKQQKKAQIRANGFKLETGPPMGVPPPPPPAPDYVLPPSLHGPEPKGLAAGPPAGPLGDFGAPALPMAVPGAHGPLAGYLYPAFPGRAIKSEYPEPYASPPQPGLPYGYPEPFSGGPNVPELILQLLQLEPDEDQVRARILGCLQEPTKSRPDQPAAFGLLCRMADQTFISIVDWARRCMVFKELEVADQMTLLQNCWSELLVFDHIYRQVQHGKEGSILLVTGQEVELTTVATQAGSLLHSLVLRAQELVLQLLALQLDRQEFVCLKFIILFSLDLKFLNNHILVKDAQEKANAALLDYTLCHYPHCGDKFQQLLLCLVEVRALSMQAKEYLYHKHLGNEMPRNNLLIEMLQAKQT
T6 sequence (P49327 whole entry, the tested form may be a part): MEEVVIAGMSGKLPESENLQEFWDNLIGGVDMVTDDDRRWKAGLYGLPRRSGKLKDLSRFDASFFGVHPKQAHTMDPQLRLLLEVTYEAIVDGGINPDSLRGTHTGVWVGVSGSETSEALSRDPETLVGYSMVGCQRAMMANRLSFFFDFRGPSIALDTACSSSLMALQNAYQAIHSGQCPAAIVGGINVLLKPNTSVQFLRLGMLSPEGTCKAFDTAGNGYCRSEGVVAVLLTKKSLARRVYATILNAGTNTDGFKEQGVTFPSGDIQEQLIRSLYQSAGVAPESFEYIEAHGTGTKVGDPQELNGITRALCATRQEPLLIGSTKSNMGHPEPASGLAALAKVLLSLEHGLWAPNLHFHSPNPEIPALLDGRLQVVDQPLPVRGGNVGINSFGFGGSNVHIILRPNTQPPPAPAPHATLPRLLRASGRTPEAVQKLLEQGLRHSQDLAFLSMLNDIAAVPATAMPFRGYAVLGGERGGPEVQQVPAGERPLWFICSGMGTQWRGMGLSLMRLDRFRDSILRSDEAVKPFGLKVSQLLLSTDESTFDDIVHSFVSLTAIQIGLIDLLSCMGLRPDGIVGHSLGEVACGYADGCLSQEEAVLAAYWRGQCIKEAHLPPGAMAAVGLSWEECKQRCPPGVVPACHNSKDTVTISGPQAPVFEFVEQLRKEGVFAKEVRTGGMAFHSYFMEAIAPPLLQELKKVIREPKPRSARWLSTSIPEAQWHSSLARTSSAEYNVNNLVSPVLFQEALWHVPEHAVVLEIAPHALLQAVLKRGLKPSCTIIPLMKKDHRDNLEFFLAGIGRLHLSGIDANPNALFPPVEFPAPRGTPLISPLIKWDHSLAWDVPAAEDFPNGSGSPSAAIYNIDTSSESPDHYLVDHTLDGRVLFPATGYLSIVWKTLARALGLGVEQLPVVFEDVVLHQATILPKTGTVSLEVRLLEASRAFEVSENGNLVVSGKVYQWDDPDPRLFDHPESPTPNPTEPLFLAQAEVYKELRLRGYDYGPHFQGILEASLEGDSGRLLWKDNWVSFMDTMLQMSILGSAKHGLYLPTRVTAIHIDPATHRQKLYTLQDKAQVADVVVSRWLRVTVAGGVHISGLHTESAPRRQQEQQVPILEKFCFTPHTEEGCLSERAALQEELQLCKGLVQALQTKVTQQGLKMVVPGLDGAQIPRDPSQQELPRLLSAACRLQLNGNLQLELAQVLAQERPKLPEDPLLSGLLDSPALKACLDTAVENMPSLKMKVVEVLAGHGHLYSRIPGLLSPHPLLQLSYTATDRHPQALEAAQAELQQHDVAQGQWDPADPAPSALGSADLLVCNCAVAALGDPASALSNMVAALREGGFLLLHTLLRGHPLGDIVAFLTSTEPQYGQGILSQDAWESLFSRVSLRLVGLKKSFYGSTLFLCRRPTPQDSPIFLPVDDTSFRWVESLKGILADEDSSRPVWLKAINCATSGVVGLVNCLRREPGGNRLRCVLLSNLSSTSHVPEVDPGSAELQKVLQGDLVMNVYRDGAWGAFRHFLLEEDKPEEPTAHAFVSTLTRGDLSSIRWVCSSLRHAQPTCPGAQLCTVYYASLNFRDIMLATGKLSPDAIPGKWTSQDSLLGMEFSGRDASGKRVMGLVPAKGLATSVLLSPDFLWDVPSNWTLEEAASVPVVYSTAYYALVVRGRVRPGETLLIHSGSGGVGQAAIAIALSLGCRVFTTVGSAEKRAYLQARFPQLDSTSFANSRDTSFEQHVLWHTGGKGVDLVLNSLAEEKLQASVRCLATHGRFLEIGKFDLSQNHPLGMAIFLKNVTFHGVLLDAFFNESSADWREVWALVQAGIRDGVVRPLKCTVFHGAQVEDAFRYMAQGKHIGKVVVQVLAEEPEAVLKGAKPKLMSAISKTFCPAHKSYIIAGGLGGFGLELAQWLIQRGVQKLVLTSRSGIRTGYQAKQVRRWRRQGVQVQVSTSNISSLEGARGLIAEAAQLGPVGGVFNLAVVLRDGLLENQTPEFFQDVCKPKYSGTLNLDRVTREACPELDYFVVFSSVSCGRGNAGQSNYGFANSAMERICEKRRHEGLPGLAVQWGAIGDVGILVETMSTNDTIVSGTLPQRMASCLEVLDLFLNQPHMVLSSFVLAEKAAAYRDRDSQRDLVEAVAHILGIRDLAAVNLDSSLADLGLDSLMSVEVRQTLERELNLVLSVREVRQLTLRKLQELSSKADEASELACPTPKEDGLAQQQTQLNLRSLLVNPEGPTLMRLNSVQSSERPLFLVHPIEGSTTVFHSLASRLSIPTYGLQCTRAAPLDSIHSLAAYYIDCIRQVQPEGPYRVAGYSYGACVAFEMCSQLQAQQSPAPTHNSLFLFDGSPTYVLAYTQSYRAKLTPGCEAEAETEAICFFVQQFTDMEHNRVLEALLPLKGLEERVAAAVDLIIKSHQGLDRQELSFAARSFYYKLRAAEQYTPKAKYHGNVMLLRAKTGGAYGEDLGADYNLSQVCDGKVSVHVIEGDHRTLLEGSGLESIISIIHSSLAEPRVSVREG
T5 sequence (P63165 whole entry): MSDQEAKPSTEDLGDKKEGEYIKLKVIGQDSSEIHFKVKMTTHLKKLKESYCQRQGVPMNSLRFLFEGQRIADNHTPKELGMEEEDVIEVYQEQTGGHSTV
Protein Wnt-3a, sequence (P27467 whole entry): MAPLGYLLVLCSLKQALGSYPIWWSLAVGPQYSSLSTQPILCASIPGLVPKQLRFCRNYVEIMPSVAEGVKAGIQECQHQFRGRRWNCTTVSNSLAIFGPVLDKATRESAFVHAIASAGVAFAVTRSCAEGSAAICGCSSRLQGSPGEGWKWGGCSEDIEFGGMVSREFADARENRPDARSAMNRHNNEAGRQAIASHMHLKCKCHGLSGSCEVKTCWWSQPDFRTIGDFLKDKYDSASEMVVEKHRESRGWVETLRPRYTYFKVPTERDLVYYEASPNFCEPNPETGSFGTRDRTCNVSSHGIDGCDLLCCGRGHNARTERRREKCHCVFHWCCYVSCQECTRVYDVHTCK
Nonstructural protein 1, sequence (Q194T2 whole entry): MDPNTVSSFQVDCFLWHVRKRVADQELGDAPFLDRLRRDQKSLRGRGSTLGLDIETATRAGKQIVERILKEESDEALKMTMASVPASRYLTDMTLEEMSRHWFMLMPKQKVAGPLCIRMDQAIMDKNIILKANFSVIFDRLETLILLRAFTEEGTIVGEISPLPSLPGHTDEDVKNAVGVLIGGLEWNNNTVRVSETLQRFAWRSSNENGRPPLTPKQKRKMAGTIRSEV

## N#Cc1c(NC(=O)C2CC(c3ccccc3O)=NO2)sc2c1CCC2 (centres undefined)
[1]
  IC50: > 66 µM (inactive)
[2]
  IC50: > 66 µM (inactive)

## CC1(C(=O)NCc2ccc(F)c(F)c2)Cc2c(-c3cccc(C(N)=O)c3)ccnc2O1 (centres undefined)
[3]
  AC50: 0.498 µM (active)

## CC(O)(c1cccnc1)c1nc(-c2cccc(C#N)c2)cs1 (centres undefined)
[4]
  IC50: 35.9 µM (inactive)
[5]
  IC50: 15.7 µM (inactive)
[6]
  IC50: 35.9 µM (inactive)

## Cc1ccc2nc3cc([N+](=O)[O-])cc([N+](=O)[O-])c3cc2c1
[7]
  AC50: 8.46 µM (active)
[8]
  CC50: 6.28 µM (active)
[9]
  IC50: 9.85 µM (active)

## O=C(C1CCCN(S(=O)(=O)c2cccnc2)C1)N1CCn2c1nc1ccccc12 (centres undefined)
[3]
  AC50: 14 µM (active)

## COc1ccc(C2c3c(-c4cc(Cl)c(C)cc4O)n[nH]c3C(=O)N2Cc2cccnc2)cc1OC (centres undefined)
[10]
  IC50: > 50 µM (not active)
[3]
  AC50: 0.102 µM (active)

## CCN(CC)S(=O)(=O)c1ccc(S(=O)(=O)N2CCCC(C(=O)NC3CC3)C2)cc1 (centres undefined)
[11]
  AC50: 2.9 µM (active)
[12]
  AC50: 52 µM (active)
[13]
  AC50: 9.46 µM (active)
[14]
  IC50: 0.444 µM (active)

## CNc1nc(NCc2ccccc2)c2ccccc2n1
[15]
  EC50: 1.19 µM (active)
[14]
  IC50: 43.1 µM (inactive)

## Cc1ccc(Cn2c(CCNc3nc(-c4ccc(C)cc4)cs3)nc3cc(C(=O)NCCCO)ccc32)cc1
[16]
  IC50: > 66.6 µM (inactive)
[17]
  IC50: 9.43 µM (active)

## CCCN1CCN(C(=O)C2CCN(c3nnc(C)c4c(C)n(-c5ccc(C)cc5)nc34)CC2)CC1
[3]
  AC50: 12.3 µM (active)

## O=C(Nc1ccc(Cc2ccncc2)cc1)c1cccc([N+](=O)[O-])c1
[4]
  IC50: 35.9 µM (inactive)
[18]
  IC50: 7.76 µM (active)
[5]
  IC50: 1.33 µM (active)
[6]
  IC50: 35.9 µM (inactive)
[19]
  IC50: 10.5 µM (active)

## O=C(CSc1nc2c(c(=O)n1-c1ccc(F)cc1)SCC2)NCc1ccco1
[1]
  IC50: > 66 µM (inactive)
[2]
  IC50: > 66 µM (inactive)

## CCN(CC)CCNc1ccc(C)c2sc3ccc(O)cc3c(=O)c12
[20]
  IC50: 19.7 µM (active)
[21]
  CC50: 31 µM (active)
[22]
  IC50: 21.8 µM (active)
[23]
  AC50: 0.655 µM (active)

## COc1ccc(NC(=S)NC(=O)c2ccccc2)cn1
[1]
  IC50: > 66 µM (inactive)
[2]
  IC50: > 66 µM (inactive)

## CCc1cc(=O)oc2c(C)c(OCC(=O)NCCCN3CCOCC3)ccc12
[4]
  IC50: 35.9 µM (inactive)
[5]
  IC50: 35.9 µM (inactive)
[6]
  IC50: 35.9 µM (inactive)

## COc1cc(/C=C2\C(=O)N(C)C(=S)N2C)ccc1O
[21]
  CC50: 100 µM (active)
[22]
  IC50: 31.9 µM (active)
